Test results as given in patent publication US6844328B2, “Polysaccharidic esters of N-derivatives of glutamic acid” (Eurand Pharmaceuticals Ltd., priority 2000, dated 2005).

System: dihydrofolate reductase (DHFR)
Conditions: MT 2.2×10^−5 M; 30° C.; absorbance at 340 nm
Protocol: Reagents and test samples were added to 3 ml disposable cuvettes to the required volume of distilled water in the following order: H2O (0.1-0 ml), 1.5 M Na-acetate buffer (1 ml), 1.8 M KCl (1 ml), 3 mM NADPH (0.15 ml), test solution in PBS (0-0.1 ml), dihydrofolate reductase (DHFR) (ca. 0.01 Uμl) (5 μl). All reagents were purchased from Sigma. The DHFR was introduced, mixed and incubated at 30° C. for 2 min. The reaction was initiated by the addition of dihydrofolic acid (3 mM, 0.15 ml), and the decrease in absorbance with the time at 340 nm was followed.
A control reaction, which contained 0.1 ml of PBS as test solution was included.

CN(Cc1cnc2nc(N)nc(N)c2n1)c1ccc(C(=O)N[C@@H](CCC(=O)O)C(=O)O)cc1 [MT]
inhibition of DHFR activity: completely inhibited
